Results taken from PMC12212627, “Machine Learning-Based Virtual Screening of Antibacterial Agents against Methicillin-Susceptible and Resistant Staphylococcus aureus” (Journal of Chemical Information and Modeling, 2024).
In brackets after ≈: the same amount, converted by molar mass.

How the values were obtained:
[1] = test system: clinical strain of MRSA n° 6154; assay: Broth microdilution (CLSI): screening at 100 μM and MIC, MRSA clinical strain 6154; format: cell-based, Staphylococcus aureus; settings: for MIC: broth microdilution, 24 h, 37 °C; for % of growth inhibition, MRSA (6154): at the concentration given (MIC or 100 μM where MIC >100)
Procedure: (§1) E. coli (ATCC n° […]) – a TEM-1 β-lactamase producing strain, S. aureus (ATCC n° 29213) – herein referred to as MSSA, MRSA (ATCC n° 43300), and two clinical strains of MRSA (n° 5749 and 6154) were used in the biological assays. The antibacterial activity and minimal inhibitory concentration (MIC) of the screened compounds were evaluated with the broth microdilution method in 96-well microplates, according to the Clinical and Laboratory Standards Institute (CLSI) protocol. Initially, compounds were evaluated in a screening assay to identify promising hits. The compounds were dissolved in dimethyl sulfoxide (DMSO) and then diluted in Mueller Hinton broth (MHB; Oxoid, Thermo Scientific, U.K.) to a concentration of 200 μM. After the addition of 100 μL to each well, the same volume of bacterial suspension containing 10^5 CFU/mL was added to each of the previous solutions, resulting in a final compound concentration of 100 μM. A viability control (bacterial suspension only), inhibition controls (MHB containing five times the MIC of penicillin G for MSSA, vancomycin for MRSA strains, and streptomycin for E. coli), a sterility control (medium only), and a vehicle control (DMSO 2% v/v) were included in each assay microplate. After 24 h of incubation at 37 °C, the microplates were visually inspected for inhibition of bacterial growth, and the absorbance at 600 nm of each well was read using a microplate reader spectrophotometer (VersaMax, Molecular Devices, CA). The percentage of growth inhibition was calculated as the percentage of growth reduction compared with the vehicle control. Wells showing no visual bacterial growth (no turbidity) were considered hits. The MIC of the promising compounds in the initial screening were tested as previously described, with a serial dilution of each compound (100–1.56 μM). All conditions were tested in triplicate from at least three independent assays.

[2] = Cytotoxicity, colorimetric MTT assay; format: cell-based; settings: African green monkey, Vero (ATCC CCL-81) cells, 72 h incubation
Procedure: As for the cytotoxic concentration of 50% (CC50) determination, the Vero (ATCC CCL-81) cell line was cultured in Eagle’s Minimum Essential Medium (MEM) (Cultilab, Brazil). The medium was supplemented with 5% fetal bovine serum (FBS) (Cultilab, Brazil), in addition to 100 IU/mL penicillin (Cellofarm, Brazil), 100 μg/mL streptomycin (Merck, Germany), and 0.25 μg/mL amphotericin B (Cultilab, Brazil). Cells were seeded in 96-well microplates (4.0 × 10^4 cells per well) and incubated at 37 °C and 5% CO2 atmosphere. After 24 h of incubation, 200 μL of fresh medium containing a serial dilution of the compounds (100–1.56 μM) was added to the plates. Serial dilutions of DMSO were used as vehicle controls. After 72 h of incubation under the same conditions, 100 μL of 3-(4,5-dimethylthiazol-2-yl)–2,5-diphenyltetrazolium bromide (MTT) in MEM (0.5 mg/mL) was added to each well. After 3 h of incubation with MTT (ThermoFischer Scientific), the medium was removed, and 100 μL of DMSO was added to each well to solubilize the formazan crystals. After a brief incubation under shaking for 20 min, the absorbance at 570 nm of each well was read using a spectrophotometer (VersaMax, Molecular Devices). The percentages of inhibition of cell viability were calculated by using the vehicle control. The cytotoxic concentration of 50% (CC50) is defined as the lowest concentration of a given compound that can reduce the viability of cultured cells by 50%. Posteriorly, the selectivity index (SI), that is, the ratio between the CC50 and MIC values of each active compound, was calculated. All conditions were tested in triplicate and at least two independent assays. The overall procedures applied in this work are illustrated in Figure .

[3] = test system: S. aureus (ATCC n° 29213), MSSA; assay: Broth microdilution (CLSI): screening at 100 μM and MIC, MSSA; format: cell-based, Staphylococcus aureus; settings: for MIC: broth microdilution, 24 h, 37 °C; for % of growth inhibition, MSSA (ATCC 29123): at the concentration (MIC)
Procedure: as §1

MRSA (ATCC n° 43300) = assay: Broth microdilution (CLSI): screening at 100 μM and MIC, MRSA reference strain; format: cell-based, Staphylococcus aureus; settings: for MIC: broth microdilution, 24 h, 37 °C; for % of growth inhibition, MRSA (ATCC 43300): at the concentration given (MIC or 100 μM where MIC >100)
Procedure: as §1

[4] = test system: E. coli (ATCC 35218), TEM-1 β-lactamase producing strain; assay: Broth microdilution (CLSI): screening at 100 μM and MIC, E. coli; format: cell-based; settings: broth microdilution, 24 h, 37 °C
Procedure: as §1

MSSA and MRSA strains = assay: Broth microdilution, results summed up over MSSA and MRSA strains; format: cell-based, Staphylococcus aureus; settings: Staphylococcus aureus; span over the strains evaluated; read-out: MIC values against MSSA and all MRSA strains
Procedure: as §1

[5] = test system: clinical strain of MRSA n° 5749; assay: Broth microdilution (CLSI): screening at 100 μM and MIC, MRSA clinical strain 5749; format: cell-based, Staphylococcus aureus; settings: for % of growth inhibition, MRSA (5749): at the concentration given (MIC or 100 μM where MIC >100)
Procedure: as §1

[6] = pharmacokinetic properties already determined; cited from earlier work
[7] = Staphylococcus aureus, ATCC 29123 / MSSA
[8] = Staphylococcus aureus, ATCC 43300 / MRSA
[9] = Staphylococcus aureus, MRSA, broth microdilution, 24 h, 37 °C

Row | Compound | MIC ([1]; Staphylococcus aureus, MRSA) [µM] | % of growth inhibition, MRSA (6154) [1] [%] | CC50 at 72 h [2] [µM] | MIC [3, 7] [µM] | % of growth inhibition, MSSA (ATCC 29123) [3] [%] | MIC (MRSA (ATCC n° 43300); [8]) [µM] | % of growth inhibition, MRSA (ATCC 43300) (MRSA (ATCC n° 43300)) [%] | MIC, E. coli (ATCC 35218) [4] | MIC (MSSA and MRSA strains) [µM] | MIC [5, 9] [µM] | % of growth inhibition, MRSA (5749) [5] [%] | inhibition at 100 µM ([3]; Staphylococcus aureus, ATCC 29123 / MSSA, at 100 μM, below the MIC, read-out: % of growth inhibition, MSSA (ATCC 29123), second line) [%] | cell permeability [6] | stability in the gastrointestinal tract [6] | MIC, MRSA (5749) ([5]; broth microdilution, 24 h, 37 °C) | inhibition at 50 µM ([1]; Staphylococcus aureus, MRSA, at 50 μM, below the MIC, read-out: % of growth inhibition, MRSA (6154), second line) [%] | inhibition at 50 µM (MRSA (ATCC n° 43300); Staphylococcus aureus, ATCC 43300 / MRSA, at 50 μM, below the MIC, read-out: % of growth inhibition, MRSA (ATCC 43300), second line) [%] | inhibition at 50 µM ([5]; Staphylococcus aureus, MRSA, at 50 μM, below the MIC, read-out: % of growth inhibition, MRSA (5749), second line) [%]
1 | CC(=O)O[C@@H]1[C@H](OC(C)=O)[C@H](C)O[C@H](n2cc(COC3=CC(=O)c4ccccc4C3=O)nn2)[C@H]1OC(C)=O [Compound 1, 2-[1-(2,3,4-tri-O-acetyl-6-deoxy-β-L-galactopyranosyl)-1,2,3-triazol-4-(methyl)oxy]-1,4-naphtoquinone] | > 100 | 50.60 | 33.8 ± 3.44 | 100 (≈ 52.7 µg/mL) | 99.60 | > 100 | 70.02 | − | ≥ 100 | > 100 | 41.76 |  |  |  |  |  |  | 
2 | C#CCOC1=CC(=O)c2ccccc2C1=O [Compound 3, 2-[(prop-2-yn-1-yl)oxy]-1,4-naphtoquinone] | 50 (≈ 10.6 µg/mL) | > 99.9 | 21.2 ± 8.89 | 50 (≈ 10.6 µg/mL) | 96.52 | 50 (≈ 10.6 µg/mL) | > 99.9 | − | 50 (≈ 10.6 µg/mL) | 50 (≈ 10.6 µg/mL) | > 99.9 |  |  |  |  |  |  | 
3 | C=C/C(C)=C\C[C@]1(C)[C@H](C)C[C@H](O)[C@@]23C(=C[C@H](OC(=O)CCC)C[C@@H]12)[C@@H](OC(C)=O)O[C@H]3OC(C)=O [Compound 5, [(1S,3R,5R,6aS,7R,8R,10S,10aS)-1,3-diacetyloxy-10-hydroxy-7,8-dimethyl-7-[(2Z)-3-methylpenta-2,4-dienyl]-1,3,5,6,6a,8,9,10-octahydrobenzo[d][2]benzofuran-5-yl] butanoate] | 100 (≈ 50.5 µg/mL) | > 99.9 |  | 200 (≈ 101 µg/mL) | 96.43 | 100 (≈ 50.5 µg/mL) | > 99.9 | − |  |  |  | 27.4 | high | degradation in the gastrointestinal tract | − |  |  | 
4 | O=C(NCCCOCCCNC(=O)c1ccc(-c2ccc(Br)cc2)o1)c1ccc(-c2ccc(Br)cc2)o1 [Compound 6, N,N′-(oxybis(propane-3,1-diyl))-bis(5-(4-bromophenyl)furan-2-carboxamide)] | 100 (≈ 63 µg/mL) | > 99.9 | 43.4 ± 4.66 | 50 (≈ 31.5 µg/mL) | > 99.9 | 100 (≈ 63 µg/mL) | > 99.9 | − | 50 to 100 (≈ 31.5 to 63 µg/mL) | 100 (≈ 63 µg/mL) | > 99.9 |  |  |  |  | 78.4 | 85.3 | 73.5
